# “Also recorded” adds a separate entry of the source.
# Experiments:
# CypB-CsA = experiment: displacement of 3H-CsA from CypB-CsA (gel filtration of T cell homogenate); assay type: binding, human; conditions: Compound [10 μmol]; 3H-CsA (100 nmol)
# Protocol: (§1) To study the interaction with this supermolecule from CsA-CypB or CsA-CypB-calcineurin, the compounds of the general formula I according to the invention were incubated with cell homogenate of a human T cell line containing ^3 H-CsA (100 nmol). After gel filtration on Superose 12, the radioactivity of the eluted fractions was measured and compared with the untreated control. The corresponding displacement of ^3 H-CsA from the supermolecules CypB-CsA and CypB-CsA-calcineurin by the compounds of the general formula I according to the invention is shown in Table 2: […]
# human cyclophilin B = human cyclophilin B (Homo sapiens, UniProt P23284); experiment: PPlase test (inhibition of peptidyl-prolyl cis/trans-isomerase activity); assay type: biochemical; conditions: Compound [10 μmol], human CypB
# human cyclophilin B, sequence (P23284 34-216): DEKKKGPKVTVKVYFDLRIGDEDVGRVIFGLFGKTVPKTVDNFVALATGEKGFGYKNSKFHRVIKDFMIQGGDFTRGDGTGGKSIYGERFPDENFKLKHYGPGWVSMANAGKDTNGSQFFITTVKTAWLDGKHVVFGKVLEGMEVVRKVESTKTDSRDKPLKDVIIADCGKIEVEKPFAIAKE
# Protocol: The compounds of the formula (I) according to the invention are distinguished by binding to immunophilins and inhibit their isomerase activity. This prolyl isomerase activity is assayed by an enzyme test conventionally used throughout the world: G. Fischer, H. Bang, A. Schellenberger, Biochim. Biophys. Acta, 791, 87-97, 1984; D. H. Rich et al., J. Med. Chem. 38, 4164-4170, 1995.
# […] This PPlase activity is assayed by an enzyme test conventionally used throughout the world: G. Fischer, H. Bang, C. Mech, Biomed. Biochim. Acta, 43, 1101-1111; G. Fischer, R. Bang, A. Schellenberger, Biochim. Biophys. Acta, 791, 87-97, 1984; D. H. Rich et al., J. Med. Chem. 38, 4164-4170, 1995.
# The compounds of the general formula I according to the invention are preincubated together with 10 nmol of CypB for 15 min at 4° C. The enzyme reaction is started after the addition of chymotrypsin and HEPES buffer with the test peptide Suc-Ala-Ala-Pro-Phe-Nan. The change in extinction at 390 nm is then monitored and evaluated. The change in extinction determined by photometry results from two partial reactions: a) the rapid chymotryptic cleavage of the trans-peptide; and b) the […] cis/trans isomerization catalysed by cyclophilins.
# CypB-CsA-calcineurin = experiment: displacement of 3H-CsA from CypB-CsA-calcineurin (gel filtration of T cell homogenate); assay type: binding, human; conditions: Compound [10 μmol]; 3H-CsA (100 nmol)
# Protocol: as §1
# [1] = test system: T cells stimulated with OKT-3; experiment: IL-2 proliferation test (3H-thymidine incorporation into T cells stimulated with OKT-3); assay type: cell-based; conditions: Homo sapiens, T-cell; Compound [10 μmol]; 45 h incubation, OKT-3 1 μg/ml; read-out: CD3-induced inhibition of proliferation in [%]
# Protocol: The IL-2 proliferation test is based on the incorporation of ^3 H-thymidine into T cells stimulated with OKT-3 (human anti-CD3 antibodies) and is performed as follows:
# 100,000 T cells are inoculated into 150 μl of culture medium per well in microtitre plates, stimulated by the addition of OKT-3 (1 μg/ml) and incubated for 45 h with each of the compounds of the general formula I according to the invention. After this incubation period, 10 μl of the ^3 H-thymidine solution (0.5 μCi) are pipetted into each well. Incubation is then carried out for 6 h at 37° C. in a 5% CO2 atmosphere. After the cells have been harvested, the radioactivity is quantified in a β-counter. The corresponding CD3-induced inhibition of proliferation by the compounds of the general formula I according to the invention is shown in Table 3: […]
# [2] = test system: cytokines, like IL-2, IL-4 and IL-5; conditions: animal experiments; reference substances; cited from earlier work
# FKBP = conditions: cited from earlier work
# [3] = test system: IL-2 gene transcription in T cells; conditions: cited from earlier work
SMILES,Displacement from CypB-CsA in [%] (CypB-CsA),inhibition at 10 µM (human cyclophilin B),Displacement from CypB-CsA-CN in [%] (CypB-CsA-calcineurin),inhibition [1],"blocking of cytokines, like IL-2, IL-4 and IL-5 [2]",binding affinity to receptor protein FKBP (FKBP),inhibition of gene transcription including the IL-2 gene [3]
CC(C)(C)OC(=O)N1c2ccccc2CC1C(=O)Nc1ccncc1 (racemic) [Example 10],-58%,0 to 20%,0%,6%,,,
"COC(=O)[C@H](CCCCN)NC(=O)C1Cc2ccccc2N1C(=O)C1Cc2ccccc2N1 (stereo partly drawn) [Example 4, N-[indoline-2-(R,S)-carbonyl]indoline-2-(R,S)-carboxylic acid [S-(ε-NH2)lysinemethyl ester]amide]",33%,0 to 20%,-42%,38%,,,
"COC(=O)C1Cc2ccccc2N1C(=O)C1CCN(C(=O)Cc2ccc(OC)cc2)CC1 (racemic) [Example 8, N-[N'-(4-methoxyphenylacetyl)piperidyl-4-carbonyl]indoline-2-(R,S)-carboxylic acid methyl ester]",0%,0 to 20%,8%,,,,
"CC(C)(C)OC(=O)N1c2ccccc2CC1C(=O)N1CCN(CC(=O)N2CCOCC2)CC1 (racemic) [Example 11, N-Boc-indoline-2-(R,S)-carboxylic acid (piperazinoacetic acid morpholide)amide]",-28%,0 to 20%,0%,9%,,,
C=CC[C@@H]1/C=C(\C)C[C@H](C)C[C@H](OC)[C@H]2O[C@@](O)(C(=O)C(=O)N3CCCC[C@H]3C(=O)O[C@H](/C(C)=C/[C@@H]3CC[C@@H](O)[C@H](OC)C3)[C@H](C)[C@@H](O)CC1=O)[C@H](C)C[C@@H]2OC [FK 506],,,,,"blocking of various cytokines, like IL-2, IL-4 and IL-5; also recorded: exhibit the blocking of cytokines, like IL-2, IL-4 and IL-5",bind with high affinity,"inhibit the transcription of a number of genes, including the IL-2 gene"
"COC(=O)[C@H](CCCCNC(=O)OC(C)(C)C)NC(=O)C1Cc2ccccc2N1C(=O)C1Cc2ccccc2N1C(=O)OC(C)(C)C (stereo partly drawn) [Example 3, N-[1-Boc-indoline-2-(R,S)-carbonyl]indoline-2-(R,S)-carboxylic acid [S-(N-ε-Boc)lysinemethyl ester]amide]",14%,0 to 20%,22%,82%,,,
"COC(=O)[C@H](CCCCNC(=O)OC(C)(C)C)NC(=O)C1Cc2ccccc2N1C(=O)C1CCN(C(=O)OC(C)(C)C)CC1 (stereo partly drawn) [Example 1, N-[1-Boc-piperidyl-4-carbonyl]indoline-2-(R,S)-carboxylic acid [S-(N-ε-Boc)lysinemethyl ester]amide]",10%,0 to 20%,45%,86%,,,
"CC(C)(C)OC(=O)N1CCC(C(=O)N2c3ccccc3CC2C(=O)N2CCN(CC(=O)N3CCOCC3)CC2)CC1 (racemic) [Example 12, N-[1-Boc-piperidyl-4-carbonyl]indoline-2-(R,S)-carboxylic acid (piperazinoacetic acid morpholide)amide]",8%,0 to 20%,-25%,5%,,,
CO[C@H]1C[C@@H]2CC[C@@H](C)[C@@](O)(O2)C(=O)C(=O)N2CCCC[C@H]2C(=O)O[C@H]([C@H](C)C[C@@H]2CC[C@@H](O)[C@H](OC)C2)CC(=O)[C@H](C)/C=C(\C)[C@@H](O)[C@@H](OC)C(=O)[C@H](C)C[C@H](C)/C=C/C=C/C=C/1C [rapamycin],,,,,"exhibit the blocking of cytokines, like IL-2, IL-4 and IL-5",,
"COC(=O)[C@H](Cc1ccccc1)NC(=O)C1Cc2ccccc2N1C(=O)OC(C)(C)C (stereo partly drawn) [Example 7, 1-Boc-indoline-2-(R,S)-carboxylic acid (S-phenylalanine methyl ester)amide]",38%,0 to 20%,0%,7%,,,
"COC(=O)[C@H](CCCCNC(=O)OCc1ccccc1)NC(=O)C1Cc2ccccc2N1C(=O)C1Cc2ccccc2N1C(=O)OC(C)(C)C (stereo partly drawn) [Example 5, N-[1-Boc-indoline-2-(R,S)-carbonyl]indoline-2-(R,S)-carboxylic acid [S-(N-ε-Z)lysinemethyl ester]amide]",16%,0 to 20%,20%,92%,,,
"COC(=O)[C@H](CCCCNC(=O)OCc1ccccc1)NC(=O)C1Cc2ccccc2N1C(=O)C1CCN(C(=O)Cc2ccc(OC)cc2)CC1 (stereo partly drawn) [Example 13, N-[N'-(4-methoxyphenylacetyl)piperidyl-4-carbonyl]indoline-2-(R,S)-carboxylic acid [S-(N-ε-Z)lysinemethyl ester]amide]",46%,0 to 20%,-16%,66%,,,
"COC(=O)[C@H](CCCCNC(=O)OCc1ccccc1)NC(=O)C1Cc2ccccc2N1C(=O)OC(C)(C)C (stereo partly drawn) [Example 6, 1-Boc-indoline-2-(R,S)-carboxylic acid [S-(N-ε-Z)lysinemethyl ester]amide]",0%,20 to 40%,7%,84%,,,
"COC(=O)C1Cc2ccccc2N1C(=O)Cc1ccc(OC)cc1 (racemic) [Example 9, N-(4-methoxyphenylacetyl)indoline-2-(R,S)-carboxylic acid methyl ester]",39%,0 to 20%,37%,,,,
"COC(=O)[C@H](CCCCN)NC(=O)C1Cc2ccccc2N1C(=O)C1CCNCC1 (stereo partly drawn) [Example 2, N-[piperidyl-4-carbonyl]indoline-2-(R,S)-carboxylic acid [S-(ε-NH2)lysinemethyl ester]amide]",45%,0 to 20%,-53%,40%,,,
